# Laboratory results published in PubChem BioAssay (NCI).
#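 Each compound was tested at five concentrations against cells in 96-well plates for 48 hours. TGI: concentration producing complete growth inhibition.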
# Experiments:
# Test in all cases: DTP human tumour cell line panel, 48 h
# OVCAR-4 ovarian = tested on: OVCAR-4 ovarian
# DU-145 prostate = tested on: DU-145 prostate
# ACHN renal = tested on: ACHN renal
# SK-MEL-28 melanoma = tested on: SK-MEL-28 melanoma
# BT-549 breast = tested on: BT-549 breast
# EKVX NSCLC = tested on: EKVX NSCLC
# SK-OV-3 ovarian = tested on: SK-OV-3 ovarian
# HOP-92 NSCLC = tested on: HOP-92 NSCLC
# UO-31 renal = tested on: UO-31 renal
# LOX IMVI melanoma = tested on: LOX IMVI melanoma
# OVCAR-3 ovarian = tested on: OVCAR-3 ovarian
# HL-60(TB) leukemia = tested on: HL-60(TB) leukemia
# MDA-MB-231 breast = tested on: MDA-MB-231 breast
# RXF 393 renal = tested on: RXF 393 renal
# SK-MEL-5 melanoma = tested on: SK-MEL-5 melanoma
# SNB-19 CNS = tested on: SNB-19 CNS
# UACC-257 melanoma = tested on: UACC-257 melanoma
# 786-0 renal = tested on: 786-0 renal
# RPMI-8226 leukemia = tested on: RPMI-8226 leukemia
# UACC-62 melanoma = tested on: UACC-62 melanoma
# TK-10 renal = tested on: TK-10 renal
# NCI/ADR-RES ovarian = tested on: NCI/ADR-RES ovarian
# HCT-15 colon = tested on: HCT-15 colon
# A549 NSCLC = tested on: A549 NSCLC
# SNB-75 CNS = tested on: SNB-75 CNS
# HOP-62 NSCLC = tested on: HOP-62 NSCLC
# SN12C renal = tested on: SN12C renal
# HT29 colon = tested on: HT29 colon
# NCI-H460 lung = tested on: NCI-H460 lung
# NCI-H23 lung = tested on: NCI-H23 lung
# SK-MEL-2 melanoma = tested on: SK-MEL-2 melanoma
# SF-295 CNS = tested on: SF-295 CNS
# MDA-N = tested on: MDA-N
# OVCAR-5 ovarian = tested on: OVCAR-5 ovarian
# CAKI-1 renal = tested on: CAKI-1 renal
# OVCAR-8 ovarian = tested on: OVCAR-8 ovarian
# T-47D breast = tested on: T-47D breast
# M14 melanoma = tested on: M14 melanoma
# HCT-116 colon = tested on: HCT-116 colon
# COLO 205 colon = tested on: COLO 205 colon
# MOLT-4 leukemia = tested on: MOLT-4 leukemia
# SW-620 colon = tested on: SW-620 colon
# NCI-H226 lung = tested on: NCI-H226 lung
# IGROV1 ovarian = tested on: IGROV1 ovarian
# SR leukemia = tested on: SR leukemia
# CCRF-CEM leukemia = tested on: CCRF-CEM leukemia
# SF-539 CNS = tested on: SF-539 CNS
# MDA-MB-435 = tested on: MDA-MB-435
# HCC-2998 colon = tested on: HCC-2998 colon
# MALME-3M melanoma = tested on: MALME-3M melanoma
# SF-268 CNS = tested on: SF-268 CNS
# PC-3 prostate = tested on: PC-3 prostate
# MCF7 breast = tested on: MCF7 breast
# HS 578T breast = tested on: HS 578T breast
# KM12 colon = tested on: KM12 colon
# U251 CNS = tested on: U251 CNS
# NCI-H522 lung = tested on: NCI-H522 lung
# K-562 leukemia = tested on: K-562 leukemia
# A498 renal = tested on: A498 renal
smiles,measurement,setting,value
Cc1noc(NS(=O)(=O)c2ccc(NC(=O)c3ccc4[nH]c5ccccc5c(=O)c4c3)cc2)c1C,TGI,OVCAR-4 ovarian,> 100 µM
same,TGI,DU-145 prostate,> 100 µM
same,TGI,ACHN renal,> 100 µM
same,TGI,SK-MEL-28 melanoma,> 100 µM
same,TGI,BT-549 breast,> 100 µM
same,TGI,EKVX NSCLC,> 100 µM
same,TGI,SK-OV-3 ovarian,> 100 µM
same,TGI,HOP-92 NSCLC,> 100 µM
same,TGI,UO-31 renal,> 100 µM
same,TGI,LOX IMVI melanoma,56.5 µM
same,TGI,OVCAR-3 ovarian,77.8 µM
same,TGI,HL-60(TB) leukemia,66.8 µM
same,TGI,MDA-MB-231 breast,> 100 µM
same,TGI,RXF 393 renal,98 µM
same,TGI,SK-MEL-5 melanoma,> 100 µM
same,TGI,SNB-19 CNS,> 100 µM
same,TGI,UACC-257 melanoma,> 100 µM
same,TGI,786-0 renal,> 100 µM
same,TGI,RPMI-8226 leukemia,> 100 µM
same,TGI,UACC-62 melanoma,> 100 µM
same,TGI,TK-10 renal,> 100 µM
same,TGI,NCI/ADR-RES ovarian,> 100 µM
same,TGI,HCT-15 colon,> 100 µM
same,TGI,A549 NSCLC,> 100 µM
same,TGI,SNB-75 CNS,> 100 µM
same,TGI,HOP-62 NSCLC,> 100 µM
same,TGI,SN12C renal,> 100 µM
same,TGI,HT29 colon,> 100 µM
same,TGI,NCI-H460 lung,> 100 µM
same,TGI,NCI-H23 lung,> 100 µM
same,TGI,SK-MEL-2 melanoma,> 100 µM
same,TGI,SF-295 CNS,> 100 µM
same,TGI,MDA-N,> 100 µM
same,TGI,OVCAR-5 ovarian,> 100 µM
same,TGI,CAKI-1 renal,> 100 µM
same,TGI,OVCAR-8 ovarian,> 100 µM
same,TGI,T-47D breast,63.2 µM
same,TGI,M14 melanoma,> 100 µM
same,TGI,HCT-116 colon,> 100 µM
same,TGI,COLO 205 colon,> 100 µM
same,TGI,MOLT-4 leukemia,67.6 µM
same,TGI,SW-620 colon,> 100 µM
same,TGI,NCI-H226 lung,> 100 µM
same,TGI,IGROV1 ovarian,> 100 µM
same,TGI,SR leukemia,85.2 µM
same,TGI,CCRF-CEM leukemia,67.3 µM
same,TGI,SF-539 CNS,62.2 µM
same,TGI,MDA-MB-435,> 100 µM
same,TGI,HCC-2998 colon,65.2 µM
same,TGI,MALME-3M melanoma,> 100 µM
same,TGI,SF-268 CNS,> 100 µM
same,TGI,PC-3 prostate,> 100 µM
same,TGI,MCF7 breast,66.5 µM
same,TGI,HS 578T breast,> 100 µM
same,TGI,KM12 colon,> 100 µM
same,TGI,U251 CNS,> 100 µM
same,TGI,NCI-H522 lung,76.2 µM
same,TGI,K-562 leukemia,81.5 µM
CC(C)(C)OC(=O)CCC1NC(=O)[C@@H]2Cc3c([nH]c4ccccc34)C(C3CCCCC3)N2C1=O (stereo not given in full),TGI,OVCAR-4 ovarian,> 100 µM
same,TGI,DU-145 prostate,> 100 µM
same,TGI,ACHN renal,> 100 µM
same,TGI,A498 renal,> 100 µM
same,TGI,SK-MEL-28 melanoma,> 100 µM
same,TGI,BT-549 breast,> 100 µM
same,TGI,EKVX NSCLC,> 100 µM
same,TGI,SK-OV-3 ovarian,> 100 µM
same,TGI,HOP-92 NSCLC,78.3 µM
same,TGI,UO-31 renal,> 100 µM
same,TGI,LOX IMVI melanoma,> 100 µM
same,TGI,OVCAR-3 ovarian,99.7 µM
same,TGI,HL-60(TB) leukemia,41.9 µM
same,TGI,MDA-MB-231 breast,76.6 µM
same,TGI,RXF 393 renal,> 100 µM
same,TGI,SK-MEL-5 melanoma,> 100 µM
same,TGI,SNB-19 CNS,> 100 µM
same,TGI,UACC-257 melanoma,> 100 µM
same,TGI,786-0 renal,> 100 µM
same,TGI,RPMI-8226 leukemia,56.5 µM
same,TGI,UACC-62 melanoma,> 100 µM
same,TGI,TK-10 renal,> 100 µM
same,TGI,NCI/ADR-RES ovarian,> 100 µM
same,TGI,HCT-15 colon,> 100 µM
same,TGI,A549 NSCLC,> 100 µM
same,TGI,HOP-62 NSCLC,> 100 µM
same,TGI,SN12C renal,65.6 µM
same,TGI,HT29 colon,40.2 µM
same,TGI,NCI-H23 lung,> 100 µM
same,TGI,SK-MEL-2 melanoma,65.5 µM
same,TGI,SF-295 CNS,66.2 µM
same,TGI,MDA-N,> 100 µM
same,TGI,OVCAR-5 ovarian,> 100 µM
same,TGI,CAKI-1 renal,> 100 µM
same,TGI,OVCAR-8 ovarian,> 100 µM
same,TGI,T-47D breast,> 100 µM
same,TGI,M14 melanoma,> 100 µM
same,TGI,HCT-116 colon,> 100 µM
same,TGI,COLO 205 colon,38.9 µM
same,TGI,MOLT-4 leukemia,61.3 µM
same,TGI,SW-620 colon,> 100 µM
same,TGI,NCI-H226 lung,> 100 µM
same,TGI,IGROV1 ovarian,> 100 µM
same,TGI,SR leukemia,61.1 µM
same,TGI,MDA-MB-435,> 100 µM
same,TGI,MALME-3M melanoma,80.3 µM
same,TGI,SF-268 CNS,> 100 µM
same,TGI,PC-3 prostate,74.2 µM
same,TGI,MCF7 breast,> 100 µM
same,TGI,HS 578T breast,> 100 µM
same,TGI,KM12 colon,78 µM
same,TGI,U251 CNS,> 100 µM
same,TGI,NCI-H522 lung,> 100 µM
same,TGI,K-562 leukemia,> 100 µM
O=S(=O)(Cc1nc2ccccc2s1)c1nc2ccccc2s1,TGI,OVCAR-4 ovarian,31.4 µM
same,TGI,DU-145 prostate,32 µM
same,TGI,ACHN renal,33 µM
same,TGI,A498 renal,38.6 µM
same,TGI,SK-MEL-28 melanoma,30.5 µM
same,TGI,BT-549 breast,34.1 µM
same,TGI,EKVX NSCLC,46.2 µM
same,TGI,SK-OV-3 ovarian,> 100 µM
same,TGI,HOP-92 NSCLC,28.1 µM
same,TGI,UO-31 renal,31.4 µM
same,TGI,LOX IMVI melanoma,25.6 µM
same,TGI,OVCAR-3 ovarian,28.1 µM
same,TGI,HL-60(TB) leukemia,24.2 µM
same,TGI,MDA-MB-231 breast,34 µM
same,TGI,RXF 393 renal,59.6 µM
same,TGI,SK-MEL-5 melanoma,25.6 µM
same,TGI,SNB-19 CNS,44 µM
same,TGI,UACC-257 melanoma,41.8 µM
same,TGI,786-0 renal,34.1 µM
same,TGI,RPMI-8226 leukemia,37 µM
same,TGI,UACC-62 melanoma,44.2 µM
same,TGI,TK-10 renal,35.7 µM
same,TGI,NCI/ADR-RES ovarian,> 100 µM
same,TGI,HCT-15 colon,32 µM
same,TGI,A549 NSCLC,95 µM
same,TGI,SNB-75 CNS,41.3 µM
same,TGI,HOP-62 NSCLC,> 100 µM
same,TGI,SN12C renal,35.2 µM
same,TGI,HT29 colon,37.5 µM
same,TGI,NCI-H460 lung,> 100 µM
same,TGI,NCI-H23 lung,38.9 µM
same,TGI,SK-MEL-2 melanoma,37.7 µM
same,TGI,SF-295 CNS,64.2 µM
same,TGI,MDA-N,39.5 µM
same,TGI,OVCAR-5 ovarian,39.4 µM
same,TGI,OVCAR-8 ovarian,55.7 µM
same,TGI,T-47D breast,53.6 µM
same,TGI,M14 melanoma,30.5 µM
same,TGI,HCT-116 colon,27 µM
same,TGI,COLO 205 colon,33.4 µM
same,TGI,MOLT-4 leukemia,39.9 µM
same,TGI,SW-620 colon,34.6 µM
same,TGI,NCI-H226 lung,65.6 µM
same,TGI,IGROV1 ovarian,39.6 µM
same,TGI,SR leukemia,21 µM
same,TGI,CCRF-CEM leukemia,23.7 µM
same,TGI,SF-539 CNS,43.7 µM
same,TGI,MDA-MB-435,34.4 µM
same,TGI,HCC-2998 colon,30.2 µM
same,TGI,MALME-3M melanoma,24.9 µM
same,TGI,SF-268 CNS,42.2 µM
same,TGI,PC-3 prostate,32.6 µM
same,TGI,MCF7 breast,37.1 µM
same,TGI,HS 578T breast,79.3 µM
same,TGI,KM12 colon,35.4 µM
same,TGI,U251 CNS,34.9 µM
same,TGI,NCI-H522 lung,33.9 µM
same,TGI,K-562 leukemia,32.2 µM
